In data set [1] the target is T1, Potassium/sodium hyperpolarization-activated cyclic nucleotide-gated channel 1 (Homo sapiens, UniProt O60741).
T1 sequence (O60741 whole entry): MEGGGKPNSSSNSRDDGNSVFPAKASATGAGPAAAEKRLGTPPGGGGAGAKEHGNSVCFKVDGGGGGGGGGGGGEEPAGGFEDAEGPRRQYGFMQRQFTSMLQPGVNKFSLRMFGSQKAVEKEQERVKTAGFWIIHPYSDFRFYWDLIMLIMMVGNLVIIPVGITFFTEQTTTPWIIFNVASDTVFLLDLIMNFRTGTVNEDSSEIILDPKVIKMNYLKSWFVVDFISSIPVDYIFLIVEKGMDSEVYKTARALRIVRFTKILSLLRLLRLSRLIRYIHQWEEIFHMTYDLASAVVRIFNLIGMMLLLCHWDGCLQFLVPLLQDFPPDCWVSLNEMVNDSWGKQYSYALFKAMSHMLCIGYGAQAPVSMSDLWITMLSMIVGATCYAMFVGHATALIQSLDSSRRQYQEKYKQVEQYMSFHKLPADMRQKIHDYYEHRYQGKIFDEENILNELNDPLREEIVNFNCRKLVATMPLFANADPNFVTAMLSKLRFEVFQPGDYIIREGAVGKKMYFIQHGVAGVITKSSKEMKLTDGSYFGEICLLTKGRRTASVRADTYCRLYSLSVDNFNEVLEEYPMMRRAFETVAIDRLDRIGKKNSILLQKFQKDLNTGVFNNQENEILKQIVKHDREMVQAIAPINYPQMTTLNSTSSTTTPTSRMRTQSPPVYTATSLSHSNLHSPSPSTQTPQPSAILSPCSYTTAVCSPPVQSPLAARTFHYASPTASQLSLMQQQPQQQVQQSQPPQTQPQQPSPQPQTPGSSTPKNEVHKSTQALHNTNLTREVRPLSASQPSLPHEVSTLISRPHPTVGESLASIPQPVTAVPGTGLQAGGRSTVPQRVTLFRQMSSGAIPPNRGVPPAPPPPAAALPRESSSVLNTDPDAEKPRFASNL
Nature of the data set: Inhibition of human HCN1 heterologously expressed in HEK-293 cells after 30 mins by VIPR assay. In kind it is cell-based, HEK293.

Data set [2] has as its target T2, Potassium/sodium hyperpolarization-activated cyclic nucleotide-gated channel 4 (Homo sapiens, UniProt Q9Y3Q4).
T2 sequence (Q9Y3Q4 whole entry): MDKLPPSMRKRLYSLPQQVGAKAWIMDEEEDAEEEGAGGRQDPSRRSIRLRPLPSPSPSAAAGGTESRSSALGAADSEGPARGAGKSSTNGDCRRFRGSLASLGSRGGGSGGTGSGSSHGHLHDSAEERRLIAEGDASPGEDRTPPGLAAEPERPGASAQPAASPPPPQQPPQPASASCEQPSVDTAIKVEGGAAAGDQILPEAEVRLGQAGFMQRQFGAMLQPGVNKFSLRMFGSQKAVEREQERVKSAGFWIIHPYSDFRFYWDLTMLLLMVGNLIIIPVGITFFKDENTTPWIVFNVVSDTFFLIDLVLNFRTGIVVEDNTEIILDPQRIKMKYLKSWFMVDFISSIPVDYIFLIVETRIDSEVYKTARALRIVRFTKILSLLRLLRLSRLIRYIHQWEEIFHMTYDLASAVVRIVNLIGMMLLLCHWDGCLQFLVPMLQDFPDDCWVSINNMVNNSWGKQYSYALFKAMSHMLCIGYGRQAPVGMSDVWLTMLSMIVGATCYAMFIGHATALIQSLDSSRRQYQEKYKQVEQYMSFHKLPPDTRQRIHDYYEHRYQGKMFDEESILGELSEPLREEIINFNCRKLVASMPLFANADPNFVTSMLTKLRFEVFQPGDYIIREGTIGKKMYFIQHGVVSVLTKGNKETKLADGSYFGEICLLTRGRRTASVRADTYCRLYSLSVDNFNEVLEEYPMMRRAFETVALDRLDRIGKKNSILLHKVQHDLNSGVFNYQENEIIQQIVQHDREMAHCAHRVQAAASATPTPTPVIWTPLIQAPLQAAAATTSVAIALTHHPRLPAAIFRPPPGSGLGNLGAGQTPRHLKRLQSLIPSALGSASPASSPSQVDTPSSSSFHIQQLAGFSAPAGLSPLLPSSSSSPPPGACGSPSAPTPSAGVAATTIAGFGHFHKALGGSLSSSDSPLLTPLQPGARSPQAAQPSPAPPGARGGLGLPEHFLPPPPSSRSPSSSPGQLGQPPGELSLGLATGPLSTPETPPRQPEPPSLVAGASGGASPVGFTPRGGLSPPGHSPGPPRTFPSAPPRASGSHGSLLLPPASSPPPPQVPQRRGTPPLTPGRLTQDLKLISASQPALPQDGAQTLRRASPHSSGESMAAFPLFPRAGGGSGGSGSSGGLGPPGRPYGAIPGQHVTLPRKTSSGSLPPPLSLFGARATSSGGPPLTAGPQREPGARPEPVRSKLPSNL
Nature of the data set: Inhibition of human HCN4 heterologously expressed in HEK-293 cells after 30 mins by VIPR assay. The data set is classed as cell-based, HEK293.

The species named for data set [3] is Homo sapiens. Nature of the data set: Selectivity for human HCN1 over human HCN4.
The species entered for data set [4] is Homo sapiens. Nature of the data set: Selectivity for human HCN1 over human HCN2.
Data set [5] is described as follows: Half life in human liver microsomes. In kind it is ADME, Microsome.
Data set [6] concerns Mus musculus. Nature of the data set: Antiallodynic activity in ip dosed C57BL/6 mouse spared-nerve injury model assessed as reduction of tactile allodynia after 60 mins. In kind it is functional. The settings on record: C57BL/6, ip, 1 h.
Data set [7] is filed under the species Mus musculus. The experiment in a line: Toxicity in C57BL/6 mouse assessed as induction of bradycardia after 50 mins by ECG study. The data set is classed as organism-based. The conditions noted are these: in vivo.

The source of these data is ChEMBL document CHEMBL1821572, “Discovery of a novel series of selective HCN1 blockers” (Bioorg Med Chem Lett, 2011).

By IC50 is commonly meant the concentration that gives 50% inhibition. For orientation: pIC50 means −log10 of the IC50, conventionally taken in molar units. A word on the half-life: it is how long it takes for the measured level to halve. A lower half-life goes with rapid decline. The ED50 is the dose at which the effect has come halfway, by size or by number of responders.

With `CN1CCN(C2(CNC(=O)c3ccccc3O)Cc3ccccc3C2)CC1`, the concentration for half-maximal inhibition (IC50) in data set [1] and in data set [2] was more than 200000 nM in each case.
Turning to `COc1ccccc1C(=O)NCC1(N2CCN(C)CC2)CCc2ccccc2C1` (configuration not stated), the IC50 was 1580 nM in data set [1] and 6310 nM in data set [2].
On to `CCc1ccccc1C(=O)NCC1(N2CCN(C(C)C)CC2)CCCCC1`, for which the Selectivity ratio in the data set listed under Homo sapiens [3] is 10. Besides, the half-maximal inhibitory concentration (IC50) in data set [1] was more than 200000 nM; in data set [2], 79400 nM.
In the case of `CCOc1ccccc1C(=O)NCC1(N2CCN(C(C)C)CC2)CCOCC1`, the IC50 in data set [1] was 316 nM; in data set [2], 3980 nM.
For `CN1CCN(C2(CNC(=O)c3ccccc3OC(F)(F)F)Cc3ccccc3C2)CC1`, in that order: 25100 nM and more than 200000 nM.
On the same counts, the results for `CN1CCN(C2(CNC(=O)c3ccccc3OCc3ccccc3)Cc3ccccc3C2)CC1` are 631 nM and 2510 nM.
On the same counts, the results for `CN1CCN(C2(CNC(=O)c3ccccc3F)Cc3ccccc3C2)CC1` are 25100 nM and more than 200000 nM.
Turning to `COc1cccc(C(=O)NCC2(N3CCN(C)CC3)Cc3ccccc3C2)c1`, the IC50 in data set [1] is 63100 nM; in data set [2], more than 200000 nM.
Turning to `CCOc1ccccc1C(=O)NCC1(N2CCN(C3CCC3)CC2)CCCCC1`, in the data set listed under Homo sapiens [3], the Selectivity ratio amounted to 10. The half-inhibitory concentration (IC50) was 79.4 nM in data set [1] and 794 nM in data set [2].
Consider `COc1ccccc1C(=O)NCC1(N2CCN(C(C)C)CC2)CCCCC1`, for which the Selectivity ratio in the data set filed under Homo sapiens [3] is 10. In addition, the IC50 is 31.6 nM in data set [1] and 794 nM in data set [2].
As for `COc1ccccc1C(=O)NCC1(N2CCN(C)CC2)CCCCC1`, in the data set listed under Homo sapiens [3], the Selectivity ratio turned out to be 10. For the same molecule, the results for the IC50 in data set [1] and in data set [2] were 398 nM and 5010 nM, respectively.
Turning to `COc1ccccc1C(=O)NCC1(N2CCN(C(C)C)CC2)CCN(c2ccccc2)CC1`, the values for the IC50 in data set [1] and in data set [2] were 631 nM and 5010 nM, respectively.
Consider `CCOc1ccccc1C(=O)NCC1(N2CCN(C3CC3)CC2)CCCCC1`, for which, in the data set listed under Homo sapiens [3], the Selectivity ratio is 10. Besides, the results for the IC50 in data set [1] and in data set [2] were 50.1 nM and 316 nM, respectively.
On the same counts, the results for `Cc1ccccc1C(=O)NCC1(N2CCN(C)CC2)CCCCC1` are 10, 63100 nM and more than 200000 nM.
As for `COc1ccccc1C(=O)NCCN1CCN(C)CC1`, the IC50 in data set [1] is more than 200000 nM. The same molecule showed a negative-log IC50 (pIC50) in data set [2] (hek293) of more than 3.7.
With `CCOc1ccccc1C(=O)NCC1(N2CCN(C3CCCC3)CC2)CCCCC1`, the Selectivity ratio in the data set filed under Homo sapiens [3] is 10. Besides, the IC50 is 200 nM in data set [1] and 794 nM in data set [2].
Regarding `COc1ccc([C@@H](C)CN(C/C=C\CN2C=Cc3cc(OC)c(OC)cc3CC2=O)C/C=C\CN2C=Cc3cc(OC)c(OC)cc3CC2=O)cc1OC`, the results for the Selectivity ratio in the data set listed under Homo sapiens [3] and in the data set filed under Homo sapiens [4] were more than 150 and 30, respectively.
For `COc1ccccc1C(=O)NCC(c1ccc(C)cc1)N1CCN(C)CC1` (configuration not stated), the IC50 in data set [1] is 2510 nM; in data set [2], 20000 nM.
For `CCOc1ccccc1C(=O)NCC1(N2CCN(c3ccccc3)CC2)CCCCC1`, the Selectivity ratio in the data set listed under Homo sapiens [3] is 10. Further, the IC50 in data set [1] was more than 200000 nM; in data set [2], 100000 nM.
With `COc1ccccc1C(=O)NCC1(N2CCCCC2)Cc2ccccc2C1`, the IC50 in data set [1] is 50100 nM; in data set [2], more than 200000 nM.
Consider `CCOc1ccccc1C(=O)NCC1(N2CCN(C)CC2)Cc2ccccc2C1`, for which the IC50 in data set [1] is 398 nM; in data set [2], 5010 nM.
With `CCOc1ccccc1C(=O)NCC1(N2CCN(C(C)C)CC2)Cc2ccccc2C1`, the IC50 was 631 nM in data set [1] and 3160 nM in data set [2].
On the same counts, the results for `CN1CCN(C2(CNC(=O)c3ccccc3Cl)Cc3ccccc3C2)CC1` are 20000 nM and 158000 nM.
`CCOc1ccccc1C(=O)NCC1(N2CCN(C(C)C)CC2)CCCCC1`: the Selectivity ratio in the data set listed under Homo sapiens [3] is 10. The 50% inhibitory concentration (IC50) in data set [1] was 15.8 nM; in data set [2], 316 nM.
For `CN1CCN(C2(CNC(=O)c3ccccc3Cl)CCCCC2)CC1`, in that order: 10, more than 200000 nM and 31600 nM.
Regarding `CCOc1ccccc1C(=O)NCC1(N2CCN(C)CC2)CCCCC1`, in the data set listed under Homo sapiens [3], the Selectivity ratio came out at 10. For the same molecule, the IC50 in data set [1] is 126 nM; in data set [2], 1260 nM. The molecule further showed a half-life in data set [5] of 22 min.
Regarding `CCOc1ccccc1C(=O)NCC1(N2CCN(C)CC2)CCCC1`, the half-inhibitory concentration (IC50) was 398 nM in data set [1] and 5010 nM in data set [2].
Turning to `CC(C)Oc1ccccc1C(=O)NCC1(N2CCN(C(C)C)CC2)CCCCC1`, in the data set listed under Homo sapiens [3], the Selectivity ratio was 10. The 50% inhibitory concentration (IC50) in data set [1] was 251 nM; in data set [2], 1580 nM.
For `COc1ccccc1C(=O)NCC1(N2CCN(C)CC2)Cc2ccccc2C1`, the IC50 in data set [1] is 1260 nM; in data set [2], 20000 nM.
For `COc1ccc(C(=O)NCC2(N3CCN(C)CC3)Cc3ccccc3C2)cc1`, in that order: 100000 nM and more than 200000 nM.
For `CCOc1ccccc1C(=O)NCC1(N2CCCCC2)Cc2ccccc2C1`, in that order: 15800 nM and 39800 nM.
As to `CCOc1ccccc1C(=O)NCC1(N2CCN(CC)CC2)CCCCC1`, the Selectivity ratio in the data set filed under Homo sapiens [3] turned out to be 10. The IC50 in data set [1] is 31.6 nM; in data set [2], 158 nM.
With `CCN(c1ccccc1)c1cc(NC)[n+](C)c(C)n1.[Cl-]`, the IC50 in data set [1] was 158 nM; in data set [2] it was 31.6 nM. Also, the median effective dose (ED50) in the data set with Mus musculus [6] came to 3 mg/kg. Also, the ED20 in the data set listed under Mus musculus [7] stood at 1.3 mg/kg.
